Legend:
[1] = test system: functional G-protein Ca^2+ linked pathway; experiment: Fura-2 calcium imaging, UTP challenge of COS-7 cells; type: cell-based, monkey; conditions: UTP 3μM, 1 min
Protocol: Coverslips containing cells were prepared and maintained as described. Cultured cells were washed twice in a Krebs-Hepes extra-cellular medium buffer (EM, composition in mM: NaCl 118, KCl 4.7, MgSO4 1.2, CaCl2 1.2, KH2PO4 1.2, Hepes 10, glucose 11 and BSA 0.1%, (pH 7.2 at 20° C., (Rossant, et al Endocrinology, 140, 1525-1536), and then loaded with Fura-2 (Rossant, et al Endocrinology, 140, 1525-1536) by incubation for 3 h at 20° C. with EM containing Fura-2-AM (2 μM, Molecular Probes). This procedure enables the cells to load with Fura-2-AM, which becomes hydrolysed to the free acid form once inside the intact cells. After loading, coverslips were mounted into imaging chambers and perfused with EM to remove extra-cellular Fura-2-AM and to allow hydrolysis of intracellular Fura-2-AM to occur. Measurements of changes in the free [Ca^2+]i in individual cells were made from the fluorescence ratio (excitations 340 nm/380 nm, emission >510 nm) using a Spectral Wizard monochromator, cooled integrating CCD camera and a dedicated suite of software (Merlin, Life Sciences Resources, Cambridge, UK). Data are expressed as ratio units 340/380.
Genes encoding wild type sense, wild type anti-sense and variant NK-1 receptors described above were transiently transfected into COS-7 (monkey kidney) cell lines.

[2] = test system: wild type anti-sense transfected COS-7 cells; experiment: Fura-2 calcium imaging, COS-7 cells transfected with wild type anti-sense construct (negative control); type: cell-based, monkey; conditions: COS-7 cells expressing wild type anti-sense, substance P 1 nM
Protocol: The resulting cDNA was excised from the parental vector, spliced into a mammalian expression vector, pCMV3.1 (Invitrogen). This cDNA was in an orientation which allowed expression of the hNK-1vR polypeptide. Stock plasmid was prepared by amplification in E. coli and the plasmid DNA subsequently purified using a Qiagen endonuclease free DNA preparation kit, and the fidelity of the construct confirmed by DNA sequencing. The nucleic acid sequence of the cDNA is SEQ ID N^o6 (FIG. 2) and the translated protein sequence is SEQ ID N^o5 (FIG. 1). Similarly control (negative control) constructs were prepared whereby wild type and variant HNK-1R cDNA was spliced into the vector in an opposite configuration to that described above. A further control (positive control) was prepared by ligation of the parental wild type hNK-1R cDNA into the vector in a manner which would allow hNK-1R polypeptide to be expressed. […]
Coverslips containing cells were prepared and maintained as described. […] Measurements of changes in the free [Ca^2+]i in individual cells were made from the fluorescence ratio (excitations 340 nm/380 nm, emission >510 nm) using a Spectral Wizard monochromator, cooled integrating CCD camera and a dedicated suite of software (Merlin, Life Sciences Resources, Cambridge, UK). Data are expressed as ratio units 340/380. […]

Row | Compound | [Ca^2+]i response to UTP challenge [1] | Ca^2+ response to substance P challenge [2]
1 | O=c1ccn([C@@H]2O[C@H](COP(=O)(O)OP(=O)(O)OP(=O)(O)O)[C@@H](O)[C@H]2O)c(=O)[nH]1 [UTP] | caused a [Ca^2+]i response | 
2 | H-Arg-Pro-Lys-Pro-Gln-Gln-Phe-Phe-Gly-Leu-Met-NH2 [substance P] |  | failed to invoke a Ca^2+ response

From patent US20050079495A1, “Modified tachykinin receptors” (priority 2000, published 2005)
